According to US11739100B2, “2,3-dihydro-1h-imidazo{1,2-a}pyrimidin-5-one and this 1,2,3,4-tetrahydropyrimido{1,2-a}pyrimidin-6-one derivatives comprising a substituted morpholine, preparation thereof and pharmaceutical use thereof” (SANOFI, priority 2012, dated 2023):

Molecular target: T1, recombinant Vps34 (Homo sapiens, UniProt Q8NEB9)
T1 construct: purchased Invitrogen PV5126
Assay: Phosphorylation of phosphatidylinositol (PI) by Vps34 in vitro, ADP detected by TR-FRET (HTRF Transcreener ADP)
Assay type: biochemical
Details: 10 μM ATP, 55 μg/ml PI, approximately 3 nM Vps34, 1 hour at ambient temperature; absolute IC50, mean of two independent experiments; read-out: IC50 activity range

T1 sequence (Q8NEB9 whole entry): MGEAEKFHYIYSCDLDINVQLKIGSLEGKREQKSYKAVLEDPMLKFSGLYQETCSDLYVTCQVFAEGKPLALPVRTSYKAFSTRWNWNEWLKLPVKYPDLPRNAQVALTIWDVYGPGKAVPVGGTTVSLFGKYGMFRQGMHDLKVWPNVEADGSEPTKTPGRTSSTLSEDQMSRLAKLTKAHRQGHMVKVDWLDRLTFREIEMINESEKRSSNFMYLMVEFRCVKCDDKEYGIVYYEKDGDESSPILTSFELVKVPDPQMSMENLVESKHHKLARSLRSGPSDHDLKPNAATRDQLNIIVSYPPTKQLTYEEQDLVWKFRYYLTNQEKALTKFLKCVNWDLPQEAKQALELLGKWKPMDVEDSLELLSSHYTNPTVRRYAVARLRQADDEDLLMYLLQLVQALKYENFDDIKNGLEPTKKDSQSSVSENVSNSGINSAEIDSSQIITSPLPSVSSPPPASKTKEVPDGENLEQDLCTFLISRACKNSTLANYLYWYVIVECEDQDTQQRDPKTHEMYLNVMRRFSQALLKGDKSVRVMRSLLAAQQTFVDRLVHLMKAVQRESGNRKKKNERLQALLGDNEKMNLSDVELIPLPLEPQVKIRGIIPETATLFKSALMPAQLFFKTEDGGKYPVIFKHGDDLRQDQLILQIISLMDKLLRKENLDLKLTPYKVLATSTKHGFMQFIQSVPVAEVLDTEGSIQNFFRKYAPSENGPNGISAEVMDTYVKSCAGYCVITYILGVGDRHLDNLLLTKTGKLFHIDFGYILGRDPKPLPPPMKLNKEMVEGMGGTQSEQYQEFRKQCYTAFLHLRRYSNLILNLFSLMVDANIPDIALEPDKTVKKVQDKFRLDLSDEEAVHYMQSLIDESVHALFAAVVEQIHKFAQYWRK

| Structure (SMILES) | IC50 |
| --- | --- |
| CC(C)OC(=O)CN1c2nc(N3CCOC[C@H]3C)cc(=O)n2CC[C@H]1C(F)(F)F [Example 254, [(S)-8-((R)-3-Methyl-morpholin-4-yl)-6-oxo-2-trifluoromethyl-3,4-dihydro-2H,6H-pyrimido[1,2-a]-pyrimidin-1-yl]acetic acid isopropyl ester] | < 10 nM |
| C[C@@H]1COC[C@@H](C)N1c1cc(=O)n2c(n1)N(Cc1ccnn1C(F)F)[C@H](C(F)(F)F)CC2 [Example 154, (S)-9-(2-Difluoromethyl-2H-pyrazol-3-ylmethyl)-2-((3R,5R)-3,5-dimethyl-morpholin-4-yl)-8-trifluoromethyl-6,7,8,9-tetrahydro-pyrimido[1,2-a]-pyrimidin-4-one] | < 10 nM |
| C[C@@H]1COCCN1c1nc2n(c(=O)c1F)CC[C@@H](C(F)(F)F)N2Cc1ccc(F)nc1 [Example 51, (S)-3-Fluoro-9-(6-fluoropyridin-3-yl-methyl)-2-((R)-3-methylmorpholin-4-yl)-8-trifluoromethyl-6,7,8,9-tetrahydro-pyrimido[1,2-a]-pyrimidin-4-one] | < 10 nM |
| C[C@@H]1COCCN1c1cc(=O)n2c(n1)N(CC(=O)OC1CCCC1)[C@H](C(F)(F)F)CC2 [Example 243, [(S)-8-((R)-3-Methyl-morpholin-4-yl)-6-oxo-2-trifluoromethyl-3,4-dihydro-2H,6H-pyrimido[1,2-a]-pyrimidin-1-yl]acetic acid cyclopentyl ester] | < 10 nM |
| COC(=O)CN1c2nc(N3CCOC[C@H]3C)cc(=O)n2CC[C@H]1C(F)(F)F [Example 262, [(S)-8-((R)-3-Methyl-morpholin-4-yl)-6-oxo-2-trifluoromethyl-3,4-dihydro-2H,6H-pyrimido[1,2-a]-pyrimidin-1-yl]acetic acid methyl ester] | < 10 nM |
| Cc1nc(CN2c3nc(N4CCOC[C@H]4C)cc(=O)n3CC[C@H]2C(F)(F)F)c(C)o1 [Example 93, (S)-9-(2,5-Dimethyl-oxazol-4-ylmethyl)-2-((R)-3-methyl-morpholin-4-yl)-8-trifluoromethyl-6,7,8,9-tetrahydro-pyrimido[1,2-a]-pyrimidin-4-one] | < 10 nM |
| C[C@@H]1COCCN1c1nc2n(c(=O)c1F)CC[C@@H](C(F)(F)F)N2CC(=O)C1CCOCC1 [Example 18, (S)-3-Fluoro-2-((R)-3-methylmorpholin-4-yl)-9-[2-oxo-2-(tetrahydro-pyran-4-yl)ethyl]-8-trifluoromethyl-6,7,8,9-tetrahydro-pyrimido[1,2-a]-pyrimidin-4-one] | < 10 nM |
| C[C@@H]1COC[C@H](C)N1c1cc(=O)n2c(n1)N(Cc1ccc(Cl)s1)[C@H](C(F)(F)F)CC2 [Example 151, (S)-9-(5-Chloro-thiophen-2-ylmethyl)-2-((3S,5R)-3,5-dimethylmorpholin-4-yl)-8-trifluoromethyl-6,7,8,9-tetrahydro-pyrimido[1,2-a]-pyrimidin-4-one] | 10 to 100 nM |
| Cc1nc(CN2c3nc(N4CCOC[C@H]4C)cc(=O)n3CC[C@@]2(C)C(F)(F)F)no1 [Example 211, (S)-8-Methyl-2-((R)-3-methylmorpholin-4-yl)-9-(5-methyl-[1,2,4]oxadiazol-3-yl-methyl)-8-trifluoromethyl-6,7,8,9-tetrahydro-pyrimido[1,2-a]-pyrimidin-4-one] | < 10 nM |
| CC(C)C(=O)CN1CC[C@H](C(F)(F)F)n2c1nc(N1CCOC[C@H]1C)cc2=O [Example 130, (R)-2-((R)-3-Methyl-morpholin-4-yl)-9-(3-methyl-2-oxobutyl)-6-trifluoromethyl-6,7,8,9-tetrahydro-pyrimido[1,2-a]-pyrimidin-4-one] | < 10 nM |
| C[C@@H]1COCCN1c1cc(=O)n2c(n1)N(Cc1ccnc(Cl)c1)[C@H](C(F)(F)F)CC2 [Example 76, (S)-9-(2-Chloro-pyridin-4-ylmethyl)-2-((R)-3-methyl-morpholin-4-yl)-8-trifluoromethyl-6,7,8,9-tetrahydro-pyrimido[1,2-a]-pyrimidin-4-one] | < 10 nM |
| C[C@@H]1COCCN1c1cc(=O)n2c(n1)N(c1ccnc(Cl)c1)CC[C@@H]2C(F)(F)F [Example 108, (R)-9-(2-Chloro-pyridin-4-yl)-2-((R)-3-methylmorpholin-4-yl)-6-trifluoromethyl-6,7,8,9-tetrahydro-pyrimido[1,2-a]-pyrimidin-4-one] | < 10 nM |
| C[C@@H]1COCCN1c1nc2n(c(=O)c1F)CC[C@@H](C(F)(F)F)N2CC(=O)N1CCCO1 [Example 314, (S)-3-Fluoro-9-(2-isoxazolidin-2-yl-2-oxoethyl)-2-((R)-3-methylmorpholin-4-yl)-8-trifluoromethyl-6,7,8,9-tetrahydro-pyrimido[1,2-a]-pyrimidin-4-one] | < 10 nM |
| C[C@@H]1COCCN1c1cc(=O)n2c(n1)N(Cc1nnc(C(F)(F)F)o1)[C@H](C(F)(F)F)CC2 [Example 140, (S)-2-((R)-3-Methyl-morpholin-4-yl)-8-trifluoromethyl-9-(5-trifluoromethyl-[1,3,4]oxadiazol-2-yl-methyl)-6,7,8,9-tetrahydro-pyrimido[1,2-a]-pyrimidin-4-one] | < 10 nM |
| C[C@@H]1COCCN1c1cc(=O)n2c(n1)N(Cc1cccnc1)[C@H](C(F)(F)F)CC2 [Example 217, (S)-2-((R)-3-Methyl-morpholin-4-yl)-9-pyridin-3-ylmethyl-8-trifluoromethyl-6,7,8,9-tetrahydro-pyrimido[1,2-a]-pyrimidin-4-one] | < 10 nM |
| C[C@@H]1COCCN1c1cc(=O)n2c(n1)N(CC(=O)c1ccccn1)[C@](C)(C(F)(F)F)C2 [Example 179, (S)-2-Methyl-7-((R)-3-methylmorpholin-4-yl)-1-(2-oxo-2-pyridin-2-ylethyl)-2-trifluoromethyl-2,3-dihydro-1H-imidazo[1,2-a]-pyrimidin-5-one] | < 10 nM |
| C[C@@H]1COCCN1c1cc(=O)n2c(n1)N(Cc1cocn1)CC[C@@H]2C(F)(F)F [Example 110, (R)-2-((R)-3-Methyl-morpholin-4-yl)-9-oxazol-4-ylmethyl-6-trifluoromethyl-6,7,8,9-tetrahydro-pyrimido[1,2-a]-pyrimidin-4-one] | 10 to 100 nM |
| CC1COCC(C)N1c1cc(=O)n2c(n1)N(Cc1ccc(Cl)s1)[C@H](C(F)(F)F)CC2 (stereo in doubt) [Example 152, (S)-9-(5-Chloro-thiophen-2-ylmethyl)-2-((3S,5S)-3,5-dimethylmorpholin-4-yl)-8-trifluoromethyl-6,7,8,9-tetrahydro-pyrimido[1,2-a]-pyrimidin-4-one] | < 10 nM |
| C[C@@H]1COCCN1c1cc(=O)n2c(n1)N(Cc1noc(C(C)(C)C)n1)[C@H](C(F)(F)F)CC2 [Example 203, (S)-9-(5-tert-Butyl-[1,2,4]oxadiazol-3-yl-methyl)-2-((R)-3-methylmorpholin-4-yl)-8-trifluoromethyl-6,7,8,9-tetrahydro-pyrimido[1,2-a]-pyrimidin-4-one] | < 10 nM |
| C[C@@H]1COC[C@@H](C)N1c1cc(=O)n2c(n1)N(Cc1ccnc(Cl)c1)[C@H](C(F)(F)F)CC2 [Example 157, (S)-9-(2-Chloro-pyridin-4-ylmethyl)-2-((3R,5R)-3,5-dimethyl-morpholin-4-yl)-8-trifluoromethyl-6,7,8,9-tetrahydro-pyrimido[1,2-a]-pyrimidin-4-one] | < 10 nM |
| C[C@@H]1COCCN1c1nc2n(c(=O)c1F)CC[C@@H](C(F)(F)F)N2Cc1cocn1 [Example 44, (S)-3-Fluoro-2-((R)-3-methylmorpholin-4-yl)-9-oxazol-4-ylmethyl-8-trifluoromethyl-6,7,8,9-tetrahydro-pyrimido[1,2-a]-pyrimidin-4-one] | < 10 nM |
| C[C@@H]1COCCN1c1nc2n(c(=O)c1F)CC[C@@H](C(F)(F)F)N2CC(=O)C1CC1 [Example 6, (S)-9-(2-Cyclopropyl-2-oxoethyl)-3-fluoro-2-((R)-3-methyl-morpholin-4-yl)-8-trifluoromethyl-6,7,8,9-tetrahydro-pyrimido[1,2-a]-pyrimidin-4-one] | < 10 nM |
| C[C@@H]1COCCN1c1cc(=O)n2c(n1)N(CC(C)(C)O)[C@](C)(C(F)(F)F)CC2 [Example 200, (S)-9-(2-Hydroxy-2-methylpropyl)-8-methyl-2-((R)-3-methylmorpholin-4-yl)-8-trifluoromethyl-6,7,8,9-tetrahydro-pyrimido[1,2-a]-pyrimidin-4-one] | < 10 nM |
| C[C@H](O)CN1c2nc(N3CCOC[C@H]3C)c(F)c(=O)n2CC[C@H]1C(F)(F)F [Example 8, (S)-3-Fluoro-9-((S)-2-hydroxypropyl)-2-((R)-3-methylmorpholin-4-yl)-8-trifluoromethyl-6,7,8,9-tetrahydro-pyrimido[1,2-a]-pyrimidin-4-one] | < 10 nM |
| CO[C@H](CN1c2nc(N3C[C@H]4CC[C@@H](C3)O4)cc(=O)n2CC[C@H]1C(F)(F)F)c1ccccc1 [Example 206, (S)-9-((S)-2-Methoxy-2-phenylethyl)-2-(1R,5S)-8-oxa-3-aza-bicyclo[3.2.1]oct-3-yl-8-trifluoromethyl-6,7,8,9-tetrahydro-pyrimido[1,2-a]-pyrimidin-4-one] | < 10 nM |
| CC1CN(c2cc(=O)n3c(n2)N(CC(=O)C(C)C)[C@H](C(F)(F)F)CC3)CCO1 (stereo partly drawn) [Example 320, (S)-2-(2-Methyl-morpholin-4-yl)-9-(3-methyl-2-oxobutyl)-8-trifluoromethyl-6,7,8,9-tetrahydropyrimido-[1,2-a]pyrimidin-4-one] | 10 to 100 nM |
| C[C@@H]1COCCN1c1cc(=O)n2c(n1)N(Cc1cscn1)[C@H](C(F)(F)F)CC2 [Example 78, (S)-2-((R)-3-Methyl-morpholin-4-yl)-9-thiazol-4-ylmethyl-8-trifluoromethyl-6,7,8,9-tetrahydro-pyrimido[1,2-a]-pyrimidin-4-one] | < 10 nM |
| C[C@H](O)CN1c2nc(N3CCOC[C@H]3C)cc(=O)n2CC[C@H]1C(F)(F)F [Example 205, (S)-9-((S)-2-Hydroxy-propyl)-2-((R)-3-methylmorpholin-4-yl)-8-trifluoromethyl-6,7,8,9-tetrahydro-pyrimido[1,2-a]-pyrimidin-4-one] | < 10 nM |
